Measured values: PubChem BioAssay (NCI)
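Cultured in 96-well plates, cells were exposed to test compound for 48 hours across five concentrations. Abbreviation: GI50, concentration required for 50% inhibition of growth. TGI is the concentration that stops growth completely.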

How the values were obtained:
Experiment in all cases: NCI tumour cell line growth inhibition, 48 h
HCT-15 colon = test system: HCT-15 colon
SN12C renal = test system: SN12C renal
HS 578T breast = test system: HS 578T breast
U251 CNS = test system: U251 CNS
SF-295 CNS = test system: SF-295 CNS
PC-3 prostate = test system: PC-3 prostate
LOX IMVI melanoma = test system: LOX IMVI melanoma
NCI-H226 lung = test system: NCI-H226 lung
SR leukemia = test system: SR leukemia
SK-MEL-28 melanoma = test system: SK-MEL-28 melanoma
OVCAR-4 ovarian = test system: OVCAR-4 ovarian
ACHN renal = test system: ACHN renal
MDA-MB-231 breast = test system: MDA-MB-231 breast
UO-31 renal = test system: UO-31 renal
EKVX NSCLC = test system: EKVX NSCLC
HL-60(TB) leukemia = test system: HL-60(TB) leukemia
SK-OV-3 ovarian = test system: SK-OV-3 ovarian
KM12 colon = test system: KM12 colon
SF-539 CNS = test system: SF-539 CNS
CAKI-1 renal = test system: CAKI-1 renal
DU-145 prostate = test system: DU-145 prostate
UACC-62 melanoma = test system: UACC-62 melanoma
MOLT-4 leukemia = test system: MOLT-4 leukemia
SNB-75 CNS = test system: SNB-75 CNS
MCF7 breast = test system: MCF7 breast
HOP-62 NSCLC = test system: HOP-62 NSCLC
SW-620 colon = test system: SW-620 colon
T-47D breast = test system: T-47D breast
CCRF-CEM leukemia = test system: CCRF-CEM leukemia
NCI-H23 lung = test system: NCI-H23 lung
SNB-19 CNS = test system: SNB-19 CNS
K-562 leukemia = test system: K-562 leukemia
RXF 393 renal = test system: RXF 393 renal
HCT-116 colon = test system: HCT-116 colon
TK-10 renal = test system: TK-10 renal
NCI-H460 lung = test system: NCI-H460 lung
IGROV1 ovarian = test system: IGROV1 ovarian
A498 renal = test system: A498 renal
MDA-MB-435 = test system: MDA-MB-435
M14 melanoma = test system: M14 melanoma
SF-268 CNS = test system: SF-268 CNS
RPMI-8226 leukemia = test system: RPMI-8226 leukemia
NCI/ADR-RES ovarian = test system: NCI/ADR-RES ovarian
OVCAR-8 ovarian = test system: OVCAR-8 ovarian
A549 NSCLC = test system: A549 NSCLC
MALME-3M melanoma = test system: MALME-3M melanoma
HT29 colon = test system: HT29 colon
HOP-92 NSCLC = test system: HOP-92 NSCLC
OVCAR-3 ovarian = test system: OVCAR-3 ovarian
SK-MEL-2 melanoma = test system: SK-MEL-2 melanoma
BT-549 breast = test system: BT-549 breast
786-0 renal = test system: 786-0 renal
SK-MEL-5 melanoma = test system: SK-MEL-5 melanoma
COLO 205 colon = test system: COLO 205 colon
NCI-H522 lung = test system: NCI-H522 lung
OVCAR-5 ovarian = test system: OVCAR-5 ovarian

`Nc1cc(N)c2nc(NCCc3ccc(Cl)c(Cl)c3)cnc2c1` was tested. Which GI50 (HCT-15 colon) did it give?
The GI50 was 13.5 µM.

And the TGI (HCT-15 colon)?
The TGI was 27.3 µM.

What about the GI50 (SN12C renal) of the same compound?
The GI50 was 11.7 µM.

What about the TGI (SN12C renal) of the same compound?
Its TGI is 23.9 µM.

And the GI50 (HS 578T breast)?
The GI50 was 23.5 µM.

And the TGI (HS 578T breast)?
Its TGI is 56.9 µM.

And the GI50 (U251 CNS)?
Its GI50 is 11.7 µM.

And the TGI (U251 CNS)?
Its TGI is 23.9 µM.

What about the GI50 (SF-295 CNS) of the same compound?
Its GI50 is 15.3 µM.

What about the TGI (SF-295 CNS) of the same compound?
Its TGI is 29.6 µM.

What about the GI50 (PC-3 prostate) of the same compound?
The GI50 was 9.32 µM.

What about the TGI (PC-3 prostate) of the same compound?
Its TGI is 21.3 µM.

And the GI50 (LOX IMVI melanoma)?
Its GI50 is 12 µM.

What about the TGI (LOX IMVI melanoma) of the same compound?
Its TGI is 31.1 µM.

What about the GI50 (NCI-H226 lung) of the same compound?
The GI50 was 21.4 µM.

What about the TGI (NCI-H226 lung) of the same compound?
Its TGI is 47.6 µM.

What about the GI50 (SR leukemia) of the same compound?
The GI50 was 3.9 µM.

What about the TGI (SR leukemia) of the same compound?
The TGI was 20.9 µM.

And the GI50 (SK-MEL-28 melanoma)?
Its GI50 is 13.4 µM.

And the TGI (SK-MEL-28 melanoma)?
The TGI was 26.2 µM.

What about the GI50 (OVCAR-4 ovarian) of the same compound?
Its GI50 is 1.81 µM.

What about the TGI (OVCAR-4 ovarian) of the same compound?
The TGI was 3.26 µM.

What about the GI50 (ACHN renal) of the same compound?
Its GI50 is 14.8 µM.

What about the TGI (ACHN renal) of the same compound?
The TGI was 28 µM.

And the GI50 (MDA-MB-231 breast)?
The GI50 was 4.72 µM.

And the TGI (MDA-MB-231 breast)?
Its TGI is 16.5 µM.

What about the GI50 (UO-31 renal) of the same compound?
Its GI50 is 6.3 µM.

And the TGI (UO-31 renal)?
The TGI was 20.3 µM.

What about the GI50 (EKVX NSCLC) of the same compound?
The GI50 was 12.1 µM.

What about the TGI (EKVX NSCLC) of the same compound?
The TGI was 24.6 µM.

And the GI50 (HL-60(TB) leukemia)?
The GI50 was 2.15 µM.

And the TGI (HL-60(TB) leukemia)?
The TGI was 4.88 µM.

What about the GI50 (SK-OV-3 ovarian) of the same compound?
Its GI50 is 17.1 µM.

And the TGI (SK-OV-3 ovarian)?
The TGI was 32 µM.

What about the GI50 (KM12 colon) of the same compound?
Its GI50 is 13 µM.

What about the TGI (KM12 colon) of the same compound?
The TGI was 30.4 µM.

What about the GI50 (SF-539 CNS) of the same compound?
The GI50 was 15.4 µM.

What about the TGI (SF-539 CNS) of the same compound?
The TGI was 29.8 µM.

And the GI50 (CAKI-1 renal)?
Its GI50 is 4.89 µM.

What about the TGI (CAKI-1 renal) of the same compound?
The TGI was 18.2 µM.

What about the GI50 (DU-145 prostate) of the same compound?
Its GI50 is 17.2 µM.

And the TGI (DU-145 prostate)?
The TGI was 31 µM.

And the GI50 (UACC-62 melanoma)?
Its GI50 is 14.1 µM.

And the TGI (UACC-62 melanoma)?
The TGI was 27.8 µM.

What about the GI50 (MOLT-4 leukemia) of the same compound?
The GI50 was 2.5 µM.

What about the TGI (MOLT-4 leukemia) of the same compound?
Its TGI is 8.22 µM.

And the GI50 (SNB-75 CNS)?
The GI50 was 14.2 µM.

What about the TGI (SNB-75 CNS) of the same compound?
The TGI was 27.2 µM.

What about the GI50 (MCF7 breast) of the same compound?
The GI50 was 3.08 µM.

And the TGI (MCF7 breast)?
Its TGI is 13.3 µM.

And the GI50 (HOP-62 NSCLC)?
The GI50 was 19.8 µM.

And the TGI (HOP-62 NSCLC)?
Its TGI is 38 µM.

And the GI50 (SW-620 colon)?
The GI50 was 16.2 µM.

What about the TGI (SW-620 colon) of the same compound?
The TGI was 32 µM.

And the GI50 (T-47D breast)?
The GI50 was 2.83 µM.

What about the TGI (T-47D breast) of the same compound?
Its TGI is 8.65 µM.

What about the GI50 (CCRF-CEM leukemia) of the same compound?
Its GI50 is 2.02 µM.

And the TGI (CCRF-CEM leukemia)?
Its TGI is 5.05 µM.

And the GI50 (NCI-H23 lung)?
The GI50 was 19.9 µM.

And the TGI (NCI-H23 lung)?
The TGI was 45.7 µM.

And the GI50 (SNB-19 CNS)?
Its GI50 is 15.8 µM.

What about the TGI (SNB-19 CNS) of the same compound?
The TGI was 30 µM.

What about the GI50 (K-562 leukemia) of the same compound?
Its GI50 is 3.36 µM.

And the TGI (K-562 leukemia)?
The TGI was 14.1 µM.

What about the GI50 (RXF 393 renal) of the same compound?
Its GI50 is 13.8 µM.

What about the TGI (RXF 393 renal) of the same compound?
The TGI was 30.2 µM.

What about the GI50 (HCT-116 colon) of the same compound?
The GI50 was 3.7 µM.

What about the TGI (HCT-116 colon) of the same compound?
Its TGI is 15.1 µM.

And the GI50 (TK-10 renal)?
Its GI50 is 18.5 µM.

And the TGI (TK-10 renal)?
Its TGI is 33.3 µM.

And the GI50 (NCI-H460 lung)?
Its GI50 is 15.4 µM.

What about the TGI (NCI-H460 lung) of the same compound?
The TGI was 35 µM.

And the GI50 (IGROV1 ovarian)?
The GI50 was 14.5 µM.

And the TGI (IGROV1 ovarian)?
Its TGI is 28.7 µM.

What about the GI50 (A498 renal) of the same compound?
The GI50 was 20.3 µM.

And the TGI (A498 renal)?
The TGI was 34.5 µM.

And the GI50 (MDA-MB-435)?
Its GI50 is 3.96 µM.

What about the TGI (MDA-MB-435) of the same compound?
The TGI was 13.6 µM.

What about the GI50 (M14 melanoma) of the same compound?
The GI50 was 18 µM.

And the TGI (M14 melanoma)?
The TGI was 38.5 µM.

And the GI50 (SF-268 CNS)?
Its GI50 is 4.7 µM.

What about the TGI (SF-268 CNS) of the same compound?
The TGI was 17.6 µM.

What about the GI50 (RPMI-8226 leukemia) of the same compound?
Its GI50 is 2.54 µM.

And the TGI (RPMI-8226 leukemia)?
The TGI was 7.81 µM.

What about the GI50 (NCI/ADR-RES ovarian) of the same compound?
Its GI50 is 20.5 µM.

What about the TGI (NCI/ADR-RES ovarian) of the same compound?
Its TGI is 39.7 µM.

And the GI50 (OVCAR-8 ovarian)?
Its GI50 is 12.7 µM.

And the TGI (OVCAR-8 ovarian)?
Its TGI is 25.3 µM.

What about the GI50 (A549 NSCLC) of the same compound?
The GI50 was 17.7 µM.

What about the TGI (A549 NSCLC) of the same compound?
The TGI was 34.2 µM.

What about the GI50 (MALME-3M melanoma) of the same compound?
The GI50 was 3.44 µM.

What about the TGI (MALME-3M melanoma) of the same compound?
Its TGI is 11.1 µM.

And the GI50 (HT29 colon)?
Its GI50 is 6.47 µM.

And the TGI (HT29 colon)?
The TGI was 18.8 µM.

What about the GI50 (HOP-92 NSCLC) of the same compound?
The GI50 was 6.15 µM.

What about the TGI (HOP-92 NSCLC) of the same compound?
The TGI was 19.5 µM.

What about the GI50 (OVCAR-3 ovarian) of the same compound?
Its GI50 is 2.05 µM.

What about the TGI (OVCAR-3 ovarian) of the same compound?
The TGI was 5.3 µM.

And the GI50 (SK-MEL-2 melanoma)?
The GI50 was 8.23 µM.

What about the TGI (SK-MEL-2 melanoma) of the same compound?
Its TGI is 21.4 µM.

What about the GI50 (BT-549 breast) of the same compound?
Its GI50 is 20.1 µM.

And the TGI (BT-549 breast)?
Its TGI is 34.8 µM.

What about the GI50 (786-0 renal) of the same compound?
The GI50 was 16.5 µM.

And the TGI (786-0 renal)?
Its TGI is 32.9 µM.

And the GI50 (SK-MEL-5 melanoma)?
The GI50 was 13.8 µM.

What about the TGI (SK-MEL-5 melanoma) of the same compound?
Its TGI is 27.1 µM.

What about the GI50 (COLO 205 colon) of the same compound?
The GI50 was 5.6 µM.

What about the TGI (COLO 205 colon) of the same compound?
Its TGI is 24.3 µM.

What about the GI50 (NCI-H522 lung) of the same compound?
Its GI50 is 12.6 µM.

What about the TGI (NCI-H522 lung) of the same compound?
The TGI was 33.7 µM.

And the GI50 (OVCAR-5 ovarian)?
Its GI50 is 20 µM.

And the TGI (OVCAR-5 ovarian)?
The TGI was 34.6 µM.
